Measured values: PubChem BioAssay (NCI)
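Interpolation was linear, between the two tested concentrations surrounding the appropriate level; five concentrations were tested over 48 hours in 96-well plates. TGI is the concentration that stops growth completely.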

Columns and labels:
Assay in all cases: growth of human tumour cells (NCI), 48 h
COLO 205 colon = test system: COLO 205 colon
KM12 colon = test system: KM12 colon
M14 melanoma = test system: M14 melanoma
MALME-3M melanoma = test system: MALME-3M melanoma
MDA-N = test system: MDA-N
NCI-H460 lung = test system: NCI-H460 lung
NCI-H522 lung = test system: NCI-H522 lung
OVCAR-3 ovarian = test system: OVCAR-3 ovarian
OVCAR-8 ovarian = test system: OVCAR-8 ovarian
SF-295 CNS = test system: SF-295 CNS
SF-539 CNS = test system: SF-539 CNS
SK-OV-3 ovarian = test system: SK-OV-3 ovarian
SNB-19 CNS = test system: SNB-19 CNS
SNB-75 CNS = test system: SNB-75 CNS
T-47D breast = test system: T-47D breast
TK-10 renal = test system: TK-10 renal
U251 CNS = test system: U251 CNS
UACC-62 melanoma = test system: UACC-62 melanoma
RXF 393 renal = test system: RXF 393 renal

Row | Compound | TGI (COLO 205 colon) | TGI (KM12 colon) | TGI (M14 melanoma) | TGI (MALME-3M melanoma) | TGI (MDA-N) | TGI (NCI-H460 lung) | TGI (NCI-H522 lung) | TGI (OVCAR-3 ovarian) | TGI (OVCAR-8 ovarian) | TGI (SF-295 CNS) | TGI (SF-539 CNS) | TGI (SK-OV-3 ovarian) | TGI (SNB-19 CNS) | TGI (SNB-75 CNS) | TGI (T-47D breast) | TGI (TK-10 renal) | TGI (U251 CNS) | TGI (UACC-62 melanoma) | TGI (RXF 393 renal)
1 | O=Nc1c(NO)ccc2nn(-c3ccccc3)nc12 | > 100 µM | > 100 µM | > 100 µM | > 100 µM | > 100 µM | > 100 µM | 13.2 µM | > 100 µM | > 100 µM | > 100 µM | 18.4 µM | > 100 µM | > 100 µM | > 100 µM | > 100 µM | > 100 µM | > 100 µM | 9.21 µM | –
2 | COc1cc2c(cc1OC)C(=O)/C(=C/c1ccc([N+](=O)[O-])cc1)CC2 | > 10 µM | > 10 µM | > 10 µM | > 10 µM | > 10 µM | > 10 µM | – | > 10 µM | > 10 µM | > 10 µM | > 10 µM | > 10 µM | > 10 µM | – | > 10 µM | > 10 µM | > 10 µM | > 10 µM | > 10 µM
3 | COc1ccc(C(c2ccc3c(c2)OCO3)N2C(=O)CCC2C(=O)O)cc1 (centres undefined) | > 100 µM | > 100 µM | > 100 µM | > 100 µM | > 100 µM | > 100 µM | > 100 µM | > 100 µM | > 100 µM | > 100 µM | > 100 µM | > 100 µM | > 100 µM | > 100 µM | > 100 µM | > 100 µM | > 100 µM | > 100 µM | –
4 | O=C1COCCN1C(=O)c1ccccc1Cl | – | > 100 µM | > 100 µM | > 100 µM | > 100 µM | > 100 µM | > 100 µM | > 100 µM | > 100 µM | > 100 µM | > 100 µM | – | > 100 µM | > 100 µM | > 100 µM | > 100 µM | > 100 µM | > 100 µM | > 100 µM
5 | Cc1ccc(C2SCC(=O)N2NC(=O)c2ccncc2)s1 (centres undefined) | > 100 µM | > 100 µM | > 100 µM | > 100 µM | > 100 µM | – | > 100 µM | > 100 µM | > 100 µM | > 100 µM | > 100 µM | > 100 µM | > 100 µM | – | > 100 µM | > 100 µM | > 100 µM | > 100 µM | > 100 µM
6 | CN(C)c1nc(=NCc2cccnc2)ss1 | > 10 µM | > 10 µM | > 10 µM | > 10 µM | > 10 µM | – | – | – | > 10 µM | > 10 µM | – | > 10 µM | – | > 10 µM | > 10 µM | > 10 µM | – | > 10 µM | > 10 µM
7 | COC(=O)[C@H](COC(=O)/C=C/c1ccc(OC(C)=O)c(OC(C)=O)c1)NC(=O)/C=C/c1ccc(OC(C)=O)c(OC(C)=O)c1 | 37 µM | 36.6 µM | 54.3 µM | 20.7 µM | 38.8 µM | 53.9 µM | – | 33.5 µM | 67.4 µM | – | > 100 µM | 54.3 µM | 35.8 µM | 30.1 µM | 14.4 µM | – | > 100 µM | 31.9 µM | > 100 µM
8 | CCOC(=O)c1ccc(Nc2nc3cc(C(F)(F)F)ccc3nc2C(=O)OCC)cc1 | > 100 µM | > 100 µM | > 100 µM | – | > 100 µM | > 100 µM | > 100 µM | > 100 µM | > 100 µM | > 100 µM | > 100 µM | > 100 µM | 62.2 µM | > 100 µM | > 100 µM | 63.1 µM | 40.7 µM | > 100 µM | > 100 µM
9 | CCOP(=O)(OCC)C(F)(F)Cc1cnc(C)c2c1COC(C)(C)O2 | > 10 µM | > 10 µM | > 10 µM | > 10 µM | > 10 µM | > 10 µM | – | > 10 µM | > 10 µM | > 10 µM | > 10 µM | > 10 µM | > 10 µM | > 10 µM | > 10 µM | > 10 µM | > 10 µM | > 10 µM | > 10 µM
10 | N#CC(c1ccccc1)N(CCOCCOCCN(C(=O)c1cccc2ccccc12)C(C#N)c1ccccc1)C(=O)c1cccc2ccccc12 (centres undefined) | > 100 µM | > 100 µM | > 100 µM | > 100 µM | > 100 µM | > 100 µM | – | > 100 µM | > 100 µM | > 100 µM | > 100 µM | > 100 µM | > 100 µM | > 100 µM | > 100 µM | > 100 µM | > 100 µM | > 100 µM | > 100 µM
11 | Cc1nnc2n1N=C(c1cc(F)c(Cl)cc1Cl)/C(=C/c1ccc3c(c1)OCO3)S2 | > 100 µM | > 100 µM | > 100 µM | > 100 µM | > 100 µM | > 100 µM | 78.2 µM | > 100 µM | > 100 µM | > 100 µM | > 100 µM | > 100 µM | > 100 µM | – | > 100 µM | > 100 µM | > 100 µM | > 100 µM | > 100 µM
12 | N#CC1(C#N)C(c2ccccc2)C=CC(c2ccc([N+](=O)[O-])cc2)C1(C#N)C#N (centres undefined) | 3.13 µM | 52.5 µM | 15.7 µM | – | 17 µM | > 100 µM | 9.48 µM | 23.2 µM | 27.5 µM | 33.7 µM | 8.38 µM | 34.5 µM | 34.1 µM | 47.7 µM | 7.27 µM | 13.1 µM | 53 µM | 24.8 µM | –
13 | CN(C)Cc1cc(/C=C/C(=O)c2ccc(Cl)c(Cl)c2)cc(CN(C)C)c1O | 32.5 µM | 26.3 µM | 33.3 µM | 22.7 µM | 29.8 µM | 22.7 µM | – | 23.8 µM | 32.8 µM | 36.1 µM | 20.3 µM | 36.9 µM | 32.5 µM | 21.1 µM | 24.1 µM | 25.6 µM | – | 27.4 µM | 28.4 µM
14 | C=C(CN)CO[Si](C)(C)C(C)(C)C | > 100 µM | > 100 µM | > 100 µM | > 100 µM | > 100 µM | > 100 µM | > 100 µM | > 100 µM | > 100 µM | > 100 µM | > 100 µM | > 100 µM | > 100 µM | > 100 µM | > 100 µM | > 100 µM | > 100 µM | > 100 µM | –
15 | Cc1ccc(/C=N/NS(=O)(=O)c2ccc(/C=C3\NC(=O)NC3=O)cc2)cc1 | > 100 µM | > 100 µM | > 100 µM | > 100 µM | > 100 µM | > 100 µM | – | > 100 µM | > 100 µM | > 100 µM | – | > 100 µM | > 100 µM | 47.7 µM | > 100 µM | > 100 µM | > 100 µM | > 100 µM | > 100 µM
16 | NC(=O)OCc1c(-c2ccccc2)nn(-c2ccccc2)c1COC(N)=O | > 100 µM | > 100 µM | > 100 µM | > 100 µM | > 100 µM | – | > 100 µM | > 100 µM | > 100 µM | > 100 µM | > 100 µM | – | > 100 µM | > 100 µM | > 100 µM | > 100 µM | > 100 µM | > 100 µM | > 100 µM
17 | O=C(OCc1ccccc1)N1CCCc2c(n(S(=O)(=O)c3ccccc3)c3ccccc23)C1 | > 100 µM | > 100 µM | > 100 µM | > 100 µM | > 100 µM | > 100 µM | > 100 µM | > 100 µM | > 100 µM | > 100 µM | > 100 µM | > 100 µM | > 100 µM | – | > 100 µM | > 100 µM | > 100 µM | > 100 µM | > 100 µM
18 | CC1=CC(=O)/C(=C/n2c(=S)[nH]c3ccc([N+](=O)[O-])cc32)C(=O)O1 | > 100 µM | > 100 µM | > 100 µM | – | > 100 µM | > 100 µM | > 100 µM | > 100 µM | > 100 µM | > 100 µM | > 100 µM | > 100 µM | > 100 µM | > 100 µM | > 100 µM | > 100 µM | > 100 µM | > 100 µM | > 100 µM
19 | COc1ccc(-n2sc3ncc([N+](=O)[O-])cc3c2=O)cc1 | > 100 µM | > 100 µM | > 100 µM | > 100 µM | > 100 µM | > 100 µM | > 100 µM | > 100 µM | > 100 µM | > 100 µM | > 100 µM | > 100 µM | > 100 µM | > 100 µM | > 100 µM | > 100 µM | > 100 µM | > 100 µM | –
20 | O=C(c1ccccc1)C1C[C@H]2CO[C@H](c3ccccc3)N2C1=O (some centres undefined) | > 100 µM | > 100 µM | > 100 µM | > 100 µM | > 100 µM | > 100 µM | > 100 µM | > 100 µM | > 100 µM | > 100 µM | > 100 µM | – | > 100 µM | > 100 µM | > 100 µM | > 100 µM | > 100 µM | > 100 µM | > 100 µM
21 | O=c1[nH]c2cc([N+](=O)[O-])ccc2nc1/C=C(\O)c1ccc(Cl)cc1 | 78.5 µM | 40 µM | 28.4 µM | 84.9 µM | 78.7 µM | 24 µM | – | 38.6 µM | 21.5 µM | 27.4 µM | 23.1 µM | 43.4 µM | 24 µM | 55 µM | 30.8 µM | 16.5 µM | 19.8 µM | 30.3 µM | 11.9 µM
